# Key:
# Experiment in all cases: relative viability (nuclei count vs DMSO), 5 days (fraction); higher = more cells survive
# Crizotinib + Dasatinib = compound: C[C@@H](Oc1cc(-c2cnn(C3CCNCC3)c2)cnc1N)c1c(Cl)ccc(F)c1Cl [Crizotinib] + Cc1nc(Nc2ncc(C(=O)Nc3c(C)cccc3Cl)s2)cc(N2CCN(CCO)CC2)n1 [Dasatinib] (partner 0.075 µM)
# How it was run: (§1)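 Lung cancer cell lines, seeded in 1536-well plates, were treated the following day by pin tool with a single drug or with five library-drug doses (not always all listed) in √10 steps on top of a fixed anchor-drug dose. Cells were fixed and nuclei stained in one step after 5 days, and nuclei were counted. Relative viability is the nuclei count for treated wells divided by that for vehicle wells, reported as medians of duplicate plates.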
# Crizotinib + Decitabine = compound: C[C@@H](Oc1cc(-c2cnn(C3CCNCC3)c2)cnc1N)c1c(Cl)ccc(F)c1Cl [Crizotinib] + Nc1ncn([C@H]2C[C@H](O)[C@@H](CO)O2)c(=O)n1 [Decitabine] (partner 2 µM)
# How it was run: as §1
# Carfilzomib + Vorinostat = compound: CC(C)C[C@H](NC(=O)[C@H](CCc1ccccc1)NC(=O)CN1CCOCC1)C(=O)N[C@@H](Cc1ccccc1)C(=O)N[C@@H](CC(C)C)C(=O)[C@@]1(C)CO1 [Carfilzomib] + O=C(CCCCCCC(=O)Nc1ccccc1)NO [Vorinostat] (partner 1 µM)
# How it was run: as §1
# Olaparib + Phenformin = compound: O=C(c1cc(Cc2n[nH]c(=O)c3ccccc23)ccc1F)N1CCN(C(=O)C2CC2)CC1 [Olaparib] + N=C(N)NC(=N)NCCc1ccccc1 [Phenformin] (partner 250 µM)
# How it was run: as §1
Cell Line,relative viability (Crizotinib + Dasatinib; first compound 0.01 µM),relative viability (Crizotinib + Dasatinib; first compound 0.03162 µM),relative viability (Crizotinib + Dasatinib; first compound 0.1 µM),relative viability (Crizotinib + Dasatinib; first compound 0.3162 µM),relative viability (Crizotinib + Dasatinib; first compound 1 µM),relative viability (Crizotinib + Decitabine; first compound 0.01 µM),relative viability (Crizotinib + Decitabine; first compound 0.03162 µM),relative viability (Crizotinib + Decitabine; first compound 0.1 µM),relative viability (Crizotinib + Decitabine; first compound 0.3162 µM),relative viability (Crizotinib + Decitabine; first compound 1 µM),relative viability (Carfilzomib + Vorinostat; first compound 0.001 µM),relative viability (Carfilzomib + Vorinostat; first compound 0.003162 µM),relative viability (Carfilzomib + Vorinostat; first compound 0.01 µM),relative viability (Carfilzomib + Vorinostat; first compound 0.03162 µM),relative viability (Carfilzomib + Vorinostat; first compound 0.1 µM),relative viability (Olaparib + Phenformin; first compound 0.08 µM),relative viability (Olaparib + Phenformin; first compound 0.253 µM),relative viability (Olaparib + Phenformin; first compound 2.53 µM),relative viability (Olaparib + Phenformin; first compound 8 µM)
201T,0.599,0.628,0.614,0.548,0.569,0.803,0.848,0.871,0.845,0.893,0.929,1,0.985,0.93,0.514,0.396,0.465,0.481,0.43
A549,,,,,,0.213,0.216,0.324,0.16,0.257,,,,,,0.234,0.217,0.172,0.121
A-427,0.696,0.765,0.687,,0.719,0.54,0.561,0.526,,0.593,0.874,0.859,0.842,0.307,0.15,0.461,0.259,0.258,0.241
ABC-1,,0.534,0.54,0.501,0.616,1.09,,1.02,,1.15,0.706,0.534,0.35,0.274,0.257,0.239,0.234,0.243,0.276
BEN,0.295,0.311,0.27,0.224,0.312,0.687,0.61,0.761,0.632,0.647,0.549,0.503,0.552,0.598,0.273,,0.292,0.28,0.261
CAL-12T,0.407,0.47,0.394,,0.299,,,,,,0.722,0.794,0.77,0.487,0.121,0.715,0.497,0.539,0.558
COR-L23,0.508,0.424,0.519,0.437,0.533,0.346,0.463,0.454,0.386,0.392,0.454,0.438,0.212,0.0648,0.0718,0.492,0.383,0.408,0.294
COR-L 105,0.36,0.328,0.324,0.303,0.257,0.583,0.675,0.658,0.629,0.713,0.95,1,0.805,0.381,0.283,0.535,0.42,0.479,0.418
ChaGo-K-1,0.58,0.573,0.487,0.424,0.624,0.485,0.488,0.528,0.463,0.536,0.718,0.802,0.589,0.235,0.157,0.624,0.441,0.475,0.42
EKVX,0.372,0.572,0.514,0.492,0.648,0.29,0.339,0.323,0.336,0.337,0.663,0.958,0.783,0.561,0.231,0.268,0.243,0.221,0.248
EMC-BAC-2,0.369,0.313,0.282,0.363,0.331,0.96,0.921,1.01,,0.967,0.434,0.587,0.524,0.247,0.126,0.558,0.504,0.558,0.437
EPLC-272H,0.426,0.382,0.445,0.366,0.401,0.339,0.375,0.366,,0.436,0.518,0.417,0.108,0.055,0.0448,0.389,0.298,0.289,0.338
H3255,0.381,0.462,0.422,0.393,0.258,0.701,0.576,0.616,0.558,0.653,0.546,0.954,0.929,,0.811,0.435,0.342,0.38,0.385
HARA,0.28,0.279,0.256,,0.198,0.489,0.524,0.514,0.4,0.531,0.507,0.561,0.501,0.436,0.0635,0.584,0.398,0.36,0.36
HCC-15,0.557,0.573,0.639,,0.562,0.663,0.71,0.657,0.527,0.599,0.927,0.821,0.951,0.506,0.132,0.599,0.423,0.445,0.409
HCC-44,,,,,,0.959,0.943,,0.844,0.915,1.2,1.1,1.13,1.17,0.604,0.208,0.167,0.271,0.225
HCC-78,,0.335,0.448,0.361,0.322,0.754,0.759,0.669,0.593,0.661,0.433,0.467,0.461,0.303,0.283,0.72,0.66,0.756,0.714

Cell Line,relative viability (Crizotinib + Dasatinib; first compound 0.01 µM),relative viability (Crizotinib + Dasatinib; first compound 0.03162 µM),relative viability (Crizotinib + Dasatinib; first compound 0.1 µM),relative viability (Crizotinib + Dasatinib; first compound 0.3162 µM),relative viability (Crizotinib + Dasatinib; first compound 1 µM),relative viability (Crizotinib + Decitabine; first compound 0.01 µM),relative viability (Crizotinib + Decitabine; first compound 0.03162 µM),relative viability (Crizotinib + Decitabine; first compound 0.1 µM),relative viability (Crizotinib + Decitabine; first compound 0.3162 µM),relative viability (Crizotinib + Decitabine; first compound 1 µM),relative viability (Carfilzomib + Vorinostat; first compound 0.001 µM),relative viability (Carfilzomib + Vorinostat; first compound 0.003162 µM),relative viability (Carfilzomib + Vorinostat; first compound 0.01 µM),relative viability (Carfilzomib + Vorinostat; first compound 0.03162 µM),relative viability (Carfilzomib + Vorinostat; first compound 0.1 µM),relative viability (Olaparib + Phenformin; first compound 0.08 µM),relative viability (Olaparib + Phenformin; first compound 0.253 µM),relative viability (Olaparib + Phenformin; first compound 2.53 µM),relative viability (Olaparib + Phenformin; first compound 8 µM)
HCC-366,0.592,0.649,0.618,,0.458,0.31,0.294,0.406,,0.36,0.315,0.444,0.313,0.0693,0.0215,0.768,0.583,0.489,0.413
HCC-827,0.287,0.289,0.255,0.225,0.326,0.333,0.241,0.328,0.306,0.321,0.821,0.913,0.943,0.673,0.189,0.361,0.372,0.398,0.35
HOP-62,0.581,0.637,0.613,0.663,0.716,0.174,0.22,0.23,0.197,0.202,0.559,0.632,0.215,0.0689,0.0634,0.783,0.644,0.762,0.478
IA-LM,,,,,,,,,,,0.921,0.889,0.932,0.193,0.0116,,,,
LC-2-ad,0.46,0.586,0.595,0.382,0.453,0.846,0.896,0.809,,0.81,0.811,0.755,0.75,0.44,0.245,0.75,0.508,0.533,0.607
LCLC-97TM1,0.827,0.763,0.784,0.816,0.846,0.214,0.235,0.212,0.248,0.303,0.705,1.03,0.346,0.0531,0.0462,0.439,0.414,0.428,0.429
LCLC-103H,0.479,0.418,0.416,0.497,0.484,0.672,0.759,0.737,0.754,0.723,0.809,0.941,0.772,0.497,0.218,0.406,0.309,0.36,0.306
LK-2,0.369,0.338,0.253,,0.285,0.293,0.22,0.289,0.236,0.284,0.257,0.345,0.177,0.189,0.175,0.661,0.381,0.77,0.317
LOU-NH91,0.523,0.547,0.623,0.554,0.486,0.832,0.832,0.846,0.759,0.759,1.03,1.03,0.443,0.302,0.328,0.885,0.663,0.716,0.769
LU99A,0.434,0.565,0.501,0.55,0.566,0.823,0.803,0.872,0.784,,0.467,0.649,0.404,0.225,0.167,0.853,0.777,0.666,0.556
LXF-289,0.306,0.209,0.223,0.184,0.247,0.325,0.394,0.402,0.344,0.398,0.747,0.795,0.738,0.0661,0.101,0.555,0.477,0.547,0.526
NCI-H1563,0.462,0.443,0.453,0.444,0.461,,,,,,,,,,,0.677,0.657,0.681,0.734
NCI-H1623,0.455,0.502,0.499,0.454,0.505,,,,,,,,,,,0.582,0.619,0.497,0.474
NCI-H1648,,,,,,,0.498,0.401,0.488,0.452,0.64,0.613,0.954,0.28,0.212,,,,
NCI-H1792,0.706,0.829,0.733,,0.936,0.563,0.51,0.523,,0.514,,,,,,0.284,0.224,0.273,0.194
NCI-H2228,0.459,0.566,0.575,0.26,0.112,,,,,,0.728,0.657,0.468,0.101,0.0952,0.333,0.276,0.287,0.345

# Source: the supplement of paper PMC10307832
